Laboratory results as given in PMC6356855, “Two New Succinimide Derivatives Cladosporitins A and B from the Mangrove-derived Fungus Cladosporium sp. HNWSW-1” (Marine Drugs, 2018).

What was measured:
[1] = system: Hela cell line; assay: MTT cytotoxicity assay, Hela; assay type: cell-based; conditions: MTT method, mean ± SD, n = 3
Description: (§1) The MTT method optimized by Mosmann et al. was performed in vitro to test the cytotoxic activity of compounds 1–6. Adriamycin was used as a positive control and the medium without the test compound was used as a negative control in the bioassay.

[2] = system: BEL-7042 cell line; assay: MTT cytotoxicity assay, BEL-7042; assay type: cell-based; conditions: MTT method, mean ± SD, n = 3
Description: as §1

[3] = system: K562 cell line; assay: MTT cytotoxicity assay, K562; assay type: cell-based; conditions: MTT method, mean ± SD, n = 3
Description: as §1

[4] = system: SGC-7901 cell line; assay: MTT cytotoxicity assay, SGC-7901; assay type: cell-based; conditions: MTT method, mean ± SD, n = 3
Description: as §1

[5] = biological target: α-glycosidase; assay: α-glycosidase inhibitory activity assay; assay type: biochemical; conditions: α-glycosidase inhibition in vitro; mean ± SD, n = 3
Description: The method optimized by Jong et al. was performed in vitro to test the α-glucosidase inhibitory activity of compounds 1–5. Acarbose was used as positive control.

[6] = Homo sapiens, K562, cytotoxicity
[7] = Homo sapiens, SGC-7901, cytotoxicity

“1,3,6-trihydroxy-7-(1-hydroxyethyl) anthracene-9,10-dione [Compound 5]” gave an IC50 [1] greater than 50 µM, an IC50 [2] greater than 50 µM and an IC50 ([3]; cytotoxicity) greater than 50 µM. For the same compound, the IC50 ([4]; cytotoxicity) was greater than 50 µM and the IC50 [5] was 49.3 ± 10.6 µM.
`C[C@H]1O[C@H](O[C@H]2[C@H](O)[C@@H](O)[C@@H](O[C@H]3[C@H](O)[C@@H](O)C(O)O[C@@H]3CO)O[C@@H]2CO)[C@H](O)[C@@H](O)[C@@H]1N[C@H]1C=C(CO)[C@@H](O)[C@H](O)[C@H]1O` (stereo partly drawn) [Acarbose, reference compound] was tested, and the IC50 [5] was 275.7 ± 2.7 µM.
`COc1cccc2c1C(=O)c1c(O)c3c(c(O)c1C2=O)C[C@@](O)(C(=O)CO)C[C@@H]3O[C@H]1C[C@H](N)[C@H](O)[C@H](C)O1` [Adriamycin, reference compound] was tested, and the IC50 ([1]; Homo sapiens) was 11.5 ± 0.18 µM, the IC50 [2] was 11.9 ± 0.37 µM and the IC50 [3, 6] was 14.2 ± 0.66 µM. The IC50 [4, 7] was 6.66 ± 0.2 µM.
Compound `CCC(C)C=C(C)C1C(C)=CC2(C)CC(C)CCC2C1C(=O)C1C(=O)NC(=O)C1Cc1ccc(O)cc1` (stereo not drawn) [Compound 1, cladosporitin A] has an IC50 ([1]; Homo sapiens) greater than 50 µM, an IC50 [2] greater than 50 µM and an IC50 [3, 6] greater than 50 µM. For the same compound, the IC50 [4, 7] was greater than 50 µM and the IC50 [5] was greater than 500 µM.
Work on `CCC(C)C=C(C)C1C(C)=CC2(C)CC(C)CCC2C1C(=O)C1C(=O)NC(=O)C1Cc1ccc(O)cc1` (stereo not drawn) [Compound 2, cladosporitin B] yielded an IC50 [1] greater than 50 µM, an IC50 [2] of 29.4 ± 0.35 µM and an IC50 ([3]; cytotoxicity) of 25.6 ± 0.47 µM. The IC50 ([4]; cytotoxicity) was 41.7 ± 0.71 µM and the IC50 [5] was greater than 500 µM.
`C/C=C/c1cc(=O)c2c(C)cc(O)cc2o1` [Compound 3, clapone] showed an IC50 ([1]; Homo sapiens) greater than 50 µM, an IC50 [2] greater than 50 µM and an IC50 [3, 6] greater than 50 µM. It also gave an IC50 [4, 7] greater than 50 µM and an IC50 [5] greater than 500 µM.
Compound `CCC(C)/C=C(\C)[C@H]1C(C)=C[C@@]2(C)C[C@@H](C)CC[C@@H]2[C@H]1C(=O)C1=C/C(=C/c2ccc(O)cc2)NC1=O` (stereo partly drawn) [Compound 4, talaroconvolutin A] has an IC50 ([1]; Homo sapiens) of 14.9 ± 0.21 µM, an IC50 [2] of 26.7 ± 1.1 µM and an IC50 [3, 6] greater than 50 µM. It also gave an IC50 [4, 7] greater than 50 µM and an IC50 [5] of 78.2 ± 2.1 µM.
